Measured values as given in PubChem BioAssay AID434987 (Southern Research Specialized Biocontainment Screening …, 2010).
The source made the active and inactive calls. No rule for the calls is given here.

Test system: M. tuberculosis H37Rv growth inhibition with meropenem
Assay: dose response, H37Rv, with and without meropenem (AID 434987);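 also: growth over 7 days at 37 °C before Alamar Blue read on day 9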
[1] = M. tuberculosis H37Rv growth inhibition, measured here: IC50 without meropenem
[2] = M. tuberculosis H37Rv growth inhibition, measured here: IC90 without meropenem
[3] = measured here: IC90 with meropenem

Compound | IC50 | IC50 [1] [µM] | IC90 [2] [µM] | IC90 [3] [µM]
Cc1cccc(Nc2nnc(SCC(=O)Nc3ncc(C(F)(F)F)cc3Cl)s2)c1C | 7.31 µM (inactive) | 13.4 | > 100 | 21.5
O=C(COC(=O)C1CC1)NCc1ccccc1Cl | 1.37 µM | > 100 | > 100 | > 100
c1ccc(CSc2nnc(-c3ccco3)o2)cc1 | > 100 µM (inactive) | > 100 | > 100 | > 100
O=C(NCc1ccco1)c1cc2n(n1)C(C(F)(F)F)CC(c1ccc(F)cc1)N2 (stereo unspecified) | > 100 µM (inactive) | > 100 | > 100 | > 100
Cc1ccc(OCC(=O)N/N=C/c2cn(C)c3ccccc23)cc1 | 24.7 µM | > 100 | > 100 | > 100
NC(N)=NS(=O)(=O)c1ccc(N)cc1 | > 100 µM (inactive) | > 100 | > 100 | > 100
Cc1cc(=O)[nH]c(N/N=C/c2c(O)n(-c3ccccc3)c(=O)c3ccccc23)n1 | 1.87 µM | 7.61 | > 100 | 13.6
Cc1cc(C2C(=O)c3ccccc3C2=O)c(C)c(C)c1C | 3.79 µM | 34 | > 100 | 16.4
COc1cc(NC(=O)c2ccccc2F)c(OC)cc1NC(=O)CN1CCOCC1 | 29.2 µM | > 100 | > 100 | > 50
CC(C)(C)C1CCC(OCC(O)CN2CCN(c3ccccn3)CC2)CC1 (stereo unspecified) | 100 µM (inactive) | > 100 | > 100 | > 100
Cc1ccc(C)c(N2CCN(CC3CCCCC3)CC2)c1 | 37.9 µM | 95.9 | > 100 | 52.4
O=C1CC(Nc2ccc(N3CCOCC3)cc2)C(=O)N1C1CCCCC1 (stereo unspecified) | > 100 µM (inactive) | > 100 | > 100 | > 100
Cc1cc(N2CCN(c3ccccc3)CC2)nc2ccccc12 | > 100 µM (inactive) | > 100 | > 100 | > 100
CC(=O)Nc1cccc(/C(C)=N/NC(N)=S)c1 | 7.9 µM | > 100 | > 100 | 28.6
Fc1ccc(-c2csc(NC(=S)Nc3ccccc3)n2)cc1 | 7.55 µM | > 100 | > 100 | > 50
Cc1cccc(NC(=O)Cn2c(=O)n(Cc3ccccc3)c(=O)c3c(C)c(C)sc32)c1 | > 100 µM (inactive) | > 100 | > 100 | > 100
O=C(Oc1c(-c2ccccc2Cl)oc2ccccc2c1=O)c1ccc(Cl)cc1 | 11 µM | 47.5 | > 100 | > 50
O=C(COC(=O)c1ccc([N+](=O)[O-])s1)NCc1ccccc1 | 18.3 µM (inactive) | 34.8 | > 100 | 39.4
COc1cc(NC(=O)c2ccc(CNc3c(N4CCCC4)c(=O)c3=O)cc2)cc(OC)c1OC | 23.9 µM | > 100 | > 100 | > 100
CCC(C(=O)NC1C(=O)N2C(C(=O)O)=C(CSc3nnc(C)s3)CSC12)c1ccccc1 (stereo unspecified) | 0.587 µM | > 100 | > 100 | 1.57

Compound | IC50 | IC50 [1] [µM] | IC90 [2] [µM] | IC90 [3] [µM]
Cc1onc(-c2ccccc2Cl)c1C(=O)NCc1ccc2c(c1)cc(C)n2C | 16.6 µM (inactive) | 39 | 58.5 | 29.4
CC1CCc2c(sc(NC(=O)CCCn3cnc([N+](=O)[O-])n3)c2C(N)=O)C1 (stereo unspecified) | 12.8 µM | 32.7 | > 100 | 90.4
COc1ccc2[nH]c3c(c2c1)CCN=C3C | > 100 µM (inactive) | > 100 | > 100 | > 100
COc1ccc2nc(NC(=O)c3ccc(Br)s3)sc2c1 | > 100 µM (inactive) | > 100 | > 100 | > 100
C=CCNCCCOc1ccc(Cl)cc1C(C)(C)C | 48.1 µM (inactive) | 58.2 | 72.3 | 52.6
CCCc1c(C)nc2c(OC)cccc2c1SCC(=O)O | > 100 µM (inactive) | > 100 | > 100 | > 100
O=c1[nH]c(CSc2nnc3ccccn23)nc2ccccc12 | > 100 µM (inactive) | > 100 | > 100 | > 100
N/C(=N\c1nc2ccccc2o1)NC(=O)c1ccccc1NC(=O)c1ccccc1 | > 100 µM (inactive) | > 100 | > 100 | > 100
O=C(c1cccc(Cl)c1)N1CCN(Cc2ccccc2F)CC1 | > 100 µM (inactive) | > 100 | > 100 | > 100
N#Cc1c(NC(=O)CSc2nc(-c3ccco3)cc(C(F)(F)F)n2)sc2c1CCCC2 | > 100 µM (inactive) | > 100 | > 100 | > 100
CC(=O)c1ccc(OC(=O)N(c2ccccc2)c2ccccc2)cc1 | 4.13 µM | 29.6 | > 100 | 32.9
C[C@@H]1CC=C[C@H]2[C@H]1C(=O)N(Cc1ccccc1)[C@H]2c1ccc(/C=C/c2ccccc2)cc1F | > 100 µM (inactive) | > 100 | > 100 | > 100
CCC(=O)NC(=S)Nc1ccc(NC(=O)c2ccc(C)c([N+](=O)[O-])c2)cc1 | > 100 µM (inactive) | > 100 | > 100 | > 100
CCn1cc(C(=O)O)c(=O)c2cc(F)c(N/N=C/c3ccccc3)cc21 | 22.8 µM (inactive) | 36.5 | > 100 | > 100
CCC1CCCCN1C(=O)CSc1nnc(-c2ccc(Cl)s2)o1 (stereo unspecified) | > 100 µM (inactive) | > 100 | > 100 | > 100
Cn1nnnc1Sc1ncnc2scc(-c3cccc(F)c3)c12 | 15.4 µM | > 100 | > 100 | > 100
CN(C(=O)Nc1ccc(Cl)cc1)n1cnc2ccccc2c1=O | 44.9 µM (inactive) | 95.9 | > 100 | 48.6
Cc1cccc(NC(=S)NC2CC3C=CC2C3)c1 (stereo unspecified) | 22.3 µM (inactive) | 23.8 | > 100 | > 100
Cc1ccc(-n2c(SCC(=O)NCc3ccco3)nc3sc4c(c3c2=O)CC(C)(C)SC4)cc1 | > 100 µM (inactive) | > 100 | > 100 | > 100
Cc1cc(C)c(-c2c(O)c3ccccc3n(C)c2=O)c(C)c1 | 9.29 µM | 48.8 | > 100 | 42.2

Compound | IC50 | IC50 [1] [µM] | IC90 [2] [µM] | IC90 [3] [µM]
COc1ccnc(CS(=O)c2nc3cc(OC(F)F)ccc3[nH]2)c1OC (stereo unspecified) | > 100 µM (inactive) | > 100 | > 100 | > 100
CCn1c(SCc2nc(-c3cccs3)no2)nnc1-c1c[nH]c2ccccc12 | > 100 µM (inactive) | > 100 | > 100 | > 100
COc1ccc(NC(=O)CCC2CCCC2)cc1OC | > 100 µM (inactive) | > 100 | > 100 | > 100
Cc1c(C(=O)c2ccccc2)oc2ccc3ccccc3c12 | > 100 µM (inactive) | > 100 | > 100 | > 100
CCOc1cc(/C=N\NC(=O)c2ccc(NC(=O)C(C)(C)C)cc2)ccc1OC(=O)c1ccc(C)cc1 | > 100 µM (inactive) | > 100 | > 100 | > 100
CSc1cccc(NC(=O)c2ccc(Cl)nc2)c1 | > 100 µM (inactive) | > 100 | > 100 | > 100
CCOC(=O)/C=C/c1ccc2c(c1)S(=O)(=O)N(Cc1ccc(OC)cc1)[C@H]2CC(=O)OCC | > 100 µM (inactive) | > 100 | > 100 | > 100
O=c1c2cc(Cl)ccc2[nH]c(=S)n1Cc1cccs1 | 5.72 µM | 20.4 | > 50 | 13.2
O=C(NCCC1=CCCCC1)NC1CCCCC1 | 17.8 µM | > 100 | > 100 | > 50
Cc1ccc(C)c(SCc2noc(C(=O)NCC3CCCO3)c2C(=O)O)c1 (stereo unspecified) | 44.3 µM (inactive) | 50.7 | > 100 | 48
O=C(Cc1cccc2ccccc12)N/N=C/c1ccc(OC(=O)/C=C/c2ccco2)cc1 | 69 µM (inactive) | > 100 | > 100 | > 100
CSc1ccc(/C=C/C(=O)NC23CC4CC(CC(C4)C2)C3)cc1 | 5.06 µM | 27.2 | > 100 | 16.1
Cc1ccccc1NC(=O)c1ccc(CN(c2ccccc2)S(=O)(=O)c2ccccc2)cc1 | > 100 µM (inactive) | > 100 | > 100 | > 100
Cc1nnc(SCC2=C(C(=O)O)N3C(=O)C(NC(=O)COc4ccc(F)cc4)C3SC2)s1 (stereo unspecified) | 1.74 µM | 99 | > 100 | 9.33
O=C(CN1CCN(c2ccc(F)cc2)CC1)Nc1ccccc1C(=O)NCCc1ccccc1 | 35.1 µM | > 100 | > 100 | > 100
Cc1onc(NC(=O)c2ccc([N+](=O)[O-])o2)c1Br | 6.54 µM | 26.2 | 36 | 16.4
CCCC(C)NC(=O)c1ccccc1SC (stereo unspecified) | 36.4 µM (inactive) | 58.5 | > 100 | > 100
COc1cc(/C=N/NC(N)=S)ccc1OC(=O)c1ccc(C)cc1 | > 100 µM (inactive) | > 100 | > 100 | > 100
CCCn1c2ccccc2c2nnc(SCC(=O)OCC)nc21 | 27.7 µM (inactive) | 29.1 | > 50 | > 100
